The values below come from patent US4910152A, “Method for binding opioid receptors” (priority 1986, dated 1990).

Test [1] has as its target opioid receptor sites (3H-DALE). Briefly: Site selectivity displacement, 3H-DALE indicator (with cold DHM). To be noted: 0.43 nM cold DHM and 0.43 nM DALE*; determined graphically. The format is binding.
Text: In FIG. 1 it will be noted that compounds which displace the two indicator ligands differently provide a curve which is convex towards the axis of the labeled indicator ligand which is less favorably displaced.
For test [2], the system named is guinea pig ileum longitudinal muscle preparation. As to the kind of experiment: Electrically stimulated guinea pig ileum longitudinal muscle (Example 5). The format is cell-based. The method, then: 6-FN was tested for activity on an electrically stimulated guinea pig ileum longitudinal muscle preparation. In this test, a specimen of guinea pig ileum was stretched between two wires in a nutrient solution (2.5 mil.) and stimulated supramaximally at 0.1 Hz. In the absence of opioid agonists and antagonists electrical stimulation of the muscle results in contraction.

Test [3] addresses T1, opioid receptors in rat brain membrane preparations (Rattus norvegicus, UniProt P33535). As to the kind of experiment: 3H-DHM displacement from rat brain membranes (Example 4 method). To be noted: 3H-DHM displacement.
Experimental: (§1) The data was analyzed, using the program LIGAND of Munson and Rodbard.
Test [4] addresses T1, opioid receptors in rat brain membrane preparations. As to the kind of experiment: biochemical.
Experimental: as §1
Another test has as its system opioid receptors. To be noted: Hahn, Pasternak et al.; cited from earlier work.
For test [5] the following is noted: feeding induced by 2-deoxy-D-glucose; cited from earlier work.

Structures are written as SMILES. Entries after “also recorded” stand apart in the source; their conditions may differ.

T1 sequence (P33535 whole entry): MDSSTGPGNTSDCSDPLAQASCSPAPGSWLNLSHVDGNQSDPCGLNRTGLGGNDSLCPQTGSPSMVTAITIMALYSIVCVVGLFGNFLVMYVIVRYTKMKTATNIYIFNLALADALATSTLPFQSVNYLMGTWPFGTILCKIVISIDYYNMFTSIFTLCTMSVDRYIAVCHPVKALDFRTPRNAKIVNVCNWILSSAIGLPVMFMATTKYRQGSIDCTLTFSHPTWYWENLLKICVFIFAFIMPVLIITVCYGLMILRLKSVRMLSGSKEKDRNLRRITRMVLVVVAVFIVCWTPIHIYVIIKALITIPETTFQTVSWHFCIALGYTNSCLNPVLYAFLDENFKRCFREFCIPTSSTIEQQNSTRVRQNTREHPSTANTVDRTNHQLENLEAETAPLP

`C=CCN1CC[C@]23c4c5ccc(O)c4O[C@H]2C(=NNC(=S)Nc2ccc4c(c2)C(=O)OC42c4ccc(O)cc4Oc4cc(O)ccc42)CC[C@@]3(O)[C@H]1C5` [6-FN, 1-(N)-Fluoresceinyl Naloxone Thiosemicarbazone] came in with a 50% inhibitory concentration (IC50) in test [1] of 0.017 µM. Further, in test [2] (10^-6 M 6-FN, 10^-7 M naloxone), the “reversibility of 6-FN partial agonist activity by naloxone” value is listed as “reversible with 10^-7 M naloxone”. In addition, in test [2] (10^-6 M (FIG. 2)), the “agonist activity of 6-FN in ileum” value was “partial agonist activity; also recorded: slight agonist effect”. Further, the “inhibition of the agonist effect of normorphine” value in test [2] (final 6-FN concentration 10^-7 M, added prior to normorphine) was “significantly inhibited the agonist effect of normorphine”. Moreover, the “antagonist effect relative to naloxone” value in test [2] (inhibition of agonist effect of normorphine, compared with naloxone) is on record as “ten times less effective”. In addition, the “elimination of antagonist effect by washing” value in test [2] (washing of the ileum specimen) is on record as “did not readily eliminate the antagonist effect”. Further, the Hill coefficient in test [3] was determined as 0.671. In addition, in test [3] (rat brain synaptosomal membranes), the “binding activity in synaptosomal membranes (in words)” value was “sufficient binding activity”. In test [4], this compound had a dissociation constant (Kd) of 0.0115 µM.

Regarding `C=CCN1CC[C@]23c4c5ccc(O)c4O[C@H]2C(=NN=C2CC[C@@]4(O)[C@H]6Cc7ccc(O)c8c7[C@@]4(CCN6CC=C)[C@H]2O8)CC[C@@]3(O)[C@H]1C5` [naloxone azine], the “persistence of binding (in words)” value with opioid receptors is on record as “long lasting effect”.

Consider `O=C1CC[C@@]2(O)[C@H]3Cc4ccc(O)c5c4[C@@]2(CCN3CC2CC2)[C@H]1O5` [naltrexone], for which the suppression of feeding result in test [5] is given as “effective in suppressing feeding”.
